In one test the test system is T1, OSBPL7.
T1 construct: Plasmids expressing each as a full-length protein with a C-terminal FLAG tag were obtained; expressed in transfected cells; host or cells: HEK293
The experiment in a line: Competition with ^3H-Cpd K UV cross-linking to FLAG-tagged OSBPL7 in HEK293 cells (immunoprecipitation, autoradiography). It counts as binding, human. Also noted: OSBP7 percentage of inhibition / OSBP7 percentage of inhibition, average: concentration or dose not given beside the values; OSBPL7 Competition %: dose or concentration left out as unconfirmed. The protocol: Briefly, a plasmid expressing a candidate target of interest fused with a FLAG tag was transfected into HEK293 cells. After 24 h, tritiated compound K at a concentration capable of inducing ABCA1-mediated cholesterol efflux (1.0 μM) was added for 3 h, then the live cells were exposed to UV-light (ʎ = 336 nm) to query potential compound/target cross-linking in situ. Cell lysates were prepared, the expressed protein was then selectively immunoprecipitated using an anti-FLAG antibody coupled to sepharose beads, bound proteins were separated by SDS-PAGE, and two identical blots were prepared and probed by western blot and by autoradiography to detect protein expression and presence or absence of compound crosslinking, respectively. The flow chart of this screen is illustrated in Fig. 2. Figure 2d illustrates the ability of Cpd A and Cpd G to displace tritiated Cpd K from overexpressed and immunoprecipitated OSBPL7. Figure 3b illustrates the use of this assay to detect binding of tritiated Cpd K to overexpressed and immunoprecipitated variants of OSBPL7 containing point mutations in the predicted oxysterol binging pocket of OSBPL7. The advantages of this method are: i. the use of plasmid transfection leads to high expression of each candidate which reduces the likelihood to miss an authentic target for those which may be expressed at low endogenous levels, ii. the interaction of the chemical probe with its target occurs in a relevant biological context (live cells) at a pharmacologically active concentration, and iii. immunoprecipitation allows the expressed protein of interest to be purified from background proteins, substantially improving the signal/noise ratio.

In another test the test system is human THP1 macrophages. The experiment in a line: apoAI-mediated (ABCA1) cholesterol efflux from cholesterol-loaded THP1 macrophages. The class given is cell-based. Also noted: ABCA1 Efflux %: dose or concentration left out as unconfirmed.
Test [1] addresses human cannabinoid 1 receptor (hCB1-R) (Homo sapiens, UniProt P21554). The experiment in a line: Potency for binding to the CB1R in vitro (Ki). To be noted: human CB1 receptor binding.
Where [2] appears, read: single experiments (3 per compound).

Values joined by “and” are separate entries in the source; they are usually repeats but may differ in a detail not shown here. Equal entries are not always repeated.

human cannabinoid 1 receptor (hCB1-R), sequence (P21554 whole entry): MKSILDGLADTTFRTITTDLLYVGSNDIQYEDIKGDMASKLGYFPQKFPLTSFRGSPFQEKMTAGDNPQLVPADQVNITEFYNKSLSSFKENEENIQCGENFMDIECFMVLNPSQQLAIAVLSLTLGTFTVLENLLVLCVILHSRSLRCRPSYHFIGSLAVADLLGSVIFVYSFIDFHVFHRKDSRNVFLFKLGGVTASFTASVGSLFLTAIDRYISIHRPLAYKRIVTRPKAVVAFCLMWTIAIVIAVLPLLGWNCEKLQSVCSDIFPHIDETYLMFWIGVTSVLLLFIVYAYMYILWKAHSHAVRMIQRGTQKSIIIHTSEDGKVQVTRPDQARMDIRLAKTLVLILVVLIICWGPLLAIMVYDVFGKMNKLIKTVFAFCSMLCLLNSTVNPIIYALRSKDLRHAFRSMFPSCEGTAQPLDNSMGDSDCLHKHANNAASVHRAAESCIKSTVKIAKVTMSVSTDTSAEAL

Consider `O=C(N[C@@H]1CCCC[C@H]1O)c1ccc(OCC(F)(F)F)c(-c2ccc(Cl)c(Cl)c2)n1` [Cpd A], for which the “OSBP7 percentage of inhibition, average” value with OSBPL7 (average of 3) worked out at 65%. Moreover, the “OSBPL7 Competition %” value in the test with OSBPL7 (average(SEM)) is reported as 65(8.1) %. In addition, the “OSBP7 percentage of inhibition” value in the test on OSBPL7 (setting [2]) is 50% and 78% and 67%. Also, the “Competition for ^3H-Cpd K binding to OSBPL7” value in the test on OSBPL7 (unlabeled Cpd K at 50-fold excess, Cpd A, Cpd G 10 and 50 µM) is listed as “effective competitors”. Besides, the “ABCA1 percentage of induction, average” value in the test with human THP1 macrophages (average of 3) is given as 91%. Moreover, the “ABCA1 Efflux %” value with human THP1 macrophages (average(SEM)) is given as 91(4.9) %. Further, in the test on human THP1 macrophages (setting [2]), the “ABCA1 percentage of induction” value was 81% and 94% and 97%. Further, the Ki – broadly, the equilibrium dissociation constant of an inhibitor or competing ligand from its target – in test [1] was above 10 µM.
